Test results as given in the NIST ThermoML archive (doi:10.1016/j.jct.2013.08.021).

What was measured:
[1] = molar heat capacity at constant pressure; conditions: 101 kPa, Liquid, Small sample (50 mg) DSC
[2] = xn = mol fraction of the nth substance listed; conditions: 101 kPa, Liquid; for speed of sound: Sing-around technique in a fixed-path interferometer; for mass density: Vibrating tube method
[3] = refractive index (Na D-line) (dimensionless); xn = mol fraction of the nth substance listed; conditions: 101 kPa, Liquid, Standard Abbe refractometry

CCC[N+]1(C)CCCC1.O=S(=O)([N-]S(=O)(=O)C(F)(F)F)C(F)(F)F
[1]
Conditions	molar heat capacity at constant pressure [J/K/mol]
313.15 K	541
314.15 K	544
315.15 K	548
316.15 K	551
317.15 K	554
318.15 K	556
319.15 K	559
320.15 K	561
321.15 K	563
322.15 K	565
323.15 K	567
324.15 K	569
325.15 K	571
326.15 K	573
327.15 K	575
328.15 K	576
329.15 K	578
330.15 K	579
331.15 K	581
332.15 K	582
333.15 K	584
334.15 K	585
335.15 K	586
336.15 K	588
337.15 K	589
338.15 K	590
339.15 K	591
340.15 K	593
341.15 K	594
342.15 K	595
343.15 K	597
344.15 K	598
345.15 K	599
346.15 K	600
347.15 K	601
348.15 K	601
349.15 K	602
350.15 K	604
351.15 K	604
352.15 K	605
353.15 K	606

CCC[N+]1(C)CCCC1.O=S(=O)([N-]S(=O)(=O)C(F)(F)F)C(F)(F)F + CCO
Conditions	mass density, 298.15 K [kg/m3]	mass density, 303.15 K [kg/m3]	mass density, 308.15 K [kg/m3]	refractive index, 298.15 K	refractive index, 303.15 K	refractive index, 308.15 K	speed of sound, 298.15 K [m/s]	speed of sound, 303.15 K [m/s]	speed of sound, 308.15 K [m/s]
[2], x2 = 0	1427.86	1423.26	1418.83	–	–	–	1270.6	1259.5	1248.6
[2], x2 = 0.016	1425.68	1421.16	1416.65	–	–	–	1269.2	1258.2	1247.2
[2], x2 = 0.0703	1418.06	1413.56	1409.05	–	–	–	1266.3	1255.2	1244.3
[2], x2 = 0.0986	1413.89	1409.36	1404.83	–	–	–	1264.6	1253	1242.6
[2], x2 = 0.2816	1380.66	1376.07	1371.48	–	–	–	1252.4	1241.1	1229.9
[2], x2 = 0.4082	1349.44	1344.8	1340.16	–	–	–	1241	1229.5	1218.2
[2], x2 = 0.5143	1315.09	1310.32	1305.65	–	–	–	1228.8	1217.2	1205.7
[2], x2 = 0.6077	1275.55	1270.84	1266.14	–	–	–	1215.8	1203.9	1192.1
[2], x2 = 0.7059	1219.23	1214.5	1209.77	–	–	–	1198.4	1186.2	1174
[2], x2 = 0.8034	1138.92	1134.21	1129.48	–	–	–	1177.6	1164.7	1151.9
[2], x2 = 0.9002	1015	1010.37	1005.72	–	–	–	1155	1140.9	1127
[2], x2 = 0.9468	927.02	922.49	917.93	–	–	–	1146.8	1131.8	1117
[3], x2 = 0	–	–	–	1.42064	1.41926	1.41782	–	–	–
[3], x2 = 0.016	–	–	–	1.42045	1.41907	1.41766	–	–	–
[3], x2 = 0.0703	–	–	–	1.41973	1.41834	1.4169	–	–	–
[3], x2 = 0.0986	–	–	–	1.41935	1.41789	1.41649	–	–	–
[3], x2 = 0.2816	–	–	–	1.41621	1.41485	1.41339	–	–	–
[3], x2 = 0.4082	–	–	–	1.41338	1.412	1.41052	–	–	–
[3], x2 = 0.5143	–	–	–	1.41021	1.40877	1.40732	–	–	–
[3], x2 = 0.6077	–	–	–	1.40661	1.40521	1.40398	–	–	–
[3], x2 = 0.7059	–	–	–	1.40144	1.39995	1.39878	–	–	–
[3], x2 = 0.8034	–	–	–	1.39395	1.39236	1.39104	–	–	–
[3], x2 = 0.9002	–	–	–	1.38228	1.38064	1.37888	–	–	–
[3], x2 = 0.9468	–	–	–	1.37383	1.372	1.37027	–	–	–
